Source: article PMC10813393 (Biomolecules, 2023)
Read-outs that look alike come from different tables or passages of the source.

Experiments:
[1] = test system: o-SARS-CoV-2 spike pseudotyped virus particles (BA.2 lineage); format: cell-based; conditions: luciferase 72 h post-transduction
[2] = test system: α-SARS-CoV-2 spike pseudotyped virus particles; format: cell-based; conditions: luciferase 72 h post-transduction
[3] = cell-pretreatment protocol: VERO cells with FA 20 μM or L7OG 5 μM for 2 h

SMILES	entry of o-SARS-CoV-2 pseudovirus (in words) [1, 3]	entry of α-SARS-CoV-2 pseudovirus (in words) [2, 3]	entry of o-SARS-CoV-2 pseudovirus (in words) ([1]; […], VERO cells)	entry of α-SARS-CoV-2 pseudovirus (in words) ([2]; […], VERO cells)
O=C(O)[C@H]1O[C@@H](Oc2cc(O)c3c(=O)cc(-c4ccc(O)c(O)c4)oc3c2)[C@H](O)[C@@H](O)[C@@H]1O [Compound L7OG, luteolin-7-O-glucuronide]	neither L7OG nor FA inhibited the entry	neither L7OG nor FA inhibited the entry	–	–
Nc1nc(=O)c2nc(CNc3ccc(C(=O)N[C@@H](CCC(=O)O)C(=O)O)cc3)cnc2[nH]1 [FA, folic acid, reference compound]	neither L7OG nor FA inhibited the entry	neither L7OG nor FA inhibited the entry	blocked the entry	blocked the entry
